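These data come from cells grown in 96-well plates and exposed to compound for 48 hours at five concentrations. GI50 = concentration required for 50% inhibition of growth. Definition used: TGI = concentration required for complete inhibition of growth.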

Assay in all cases: NCI tumour cell line growth inhibition, 48 h
For experiment [1], the system named is 786-0 renal.
Experiment [2] has as its system A549 NSCLC.
The test system of experiment [3] is BT-549 breast.
For experiment [4], the system named is CAKI-1 renal.
Experiment [5] has as its system HOP-92 NSCLC.
The subject of experiment [6] is LOX IMVI melanoma.
Experiment [7] relates to NCI-H23 lung.
Experiment [8] concerns SF-268 CNS.
Experiment [9] relates to SR leukemia.
For experiment [10], the system named is U251 CNS.

Regarding `C[C@@H](Oc1cc(-c2cnn(C3CC4(CCCNC4)C3)c2)cnc1N)c1c(Cl)ccc(F)c1Cl` (stereo not given in full), the GI50 in experiment [1] was 1.64 µM; in experiment [2], 1.22 µM; in experiment [3] it was 1.95 µM; in experiment [4] it was 2.08 µM; in experiment [5], 0.807 µM; in experiment [6], 1.17 µM. The GI50 is 1.14 µM in [7], 1.81 µM in experiment [8], 0.0827 µM in [9] and 1.41 µM in experiment [10]. In addition, the TGI in experiment [1] was 3.19 µM; in experiment [2], 4.12 µM; in experiment [3], 3.72 µM; in [4] it was 6.62 µM; in [5], 3.42 µM; in [6], 2.5 µM. In addition, the TGI in experiment [7] was 3.41 µM; in [8], 6.02 µM; in [9], 1.41 µM; in experiment [10] it was 3.43 µM.

For the compound `Brc1ccc(Br)nn1`, the GI50 is 2.11 µM in [1]; 12.5 µM in experiment [2]; 1.52 µM in [3]; 1.96 µM in experiment [4]; 1.8 µM in [5]; 1.41 µM in experiment [6]. Also, the GI50 in experiment [7] was 1.38 µM; in experiment [8], 1.9 µM; in experiment [9], 0.439 µM; in experiment [10] it was 1.47 µM. The TGI in [1] amounted to 4.75 µM; in experiment [2], 32.4 µM; in experiment [3], 2.96 µM; in experiment [4], 5.07 µM; in [5], 3.6 µM; in [6] it was 2.88 µM. Besides, the TGI in experiment [7] worked out at 4.23 µM; in experiment [8], 5.04 µM; in experiment [9] it was 3.52 µM; in experiment [10], 3.18 µM.

Regarding `C=C1C(=O)OC2CC3(C)OC3C3OC3C3=CC(OC3=O)C12` (stereo not given), the GI50 was 17.2 µM in [1]; 21.3 µM in [2]; 8.33 µM in [3]; 1.48 µM in experiment [4]; 2.01 µM in experiment [5]; 4.18 µM in experiment [6]. The GI50 was 13.4 µM in [7], 19 µM in experiment [8], 2.82 µM in experiment [9] and 17.7 µM in experiment [10]. For the same compound, the TGI in experiment [1] was 33.8 µM; in experiment [2], 46.8 µM; in [3] it was 21.5 µM; in [4], 3 µM; in experiment [5], 4.77 µM; in [6], 12.1 µM. Further, the TGI in [7] came to 32.6 µM; in experiment [8], 38 µM; in [9] it was 7.81 µM; in [10] it was 35 µM.

For `COc1ccc(C2C3=C(COC3=O)N(CCO)c3cc4c(cc32)OCCO4)cc1OC` (stereo not given), the GI50 in experiment [1] is 2.48 µM; in experiment [2], 5.11 µM; in experiment [3], 5.06 µM; in [4] it was 4.03 µM; in experiment [5] it was 0.837 µM; in [6], 3.84 µM. Further, the GI50 in experiment [7] was 2.25 µM; in [8], 4.3 µM; in experiment [9], 0.741 µM; in [10], 2.89 µM. The TGI in [1] was above 50 µM; in [2], above 50 µM; in experiment [3], above 47.9 µM; in experiment [4] it was above 50 µM; in experiment [5], above 50 µM; in experiment [6], above 50 µM. Also, the TGI in experiment [7] is above 50 µM; in experiment [8], above 50 µM; in experiment [9], 35.8 µM; in experiment [10] it was above 50 µM.

For `CN(C)CCOc1nc2ccccc2c2c1-c1ccc(Cl)cc1C2=O`, the GI50 in experiment [1] is 0.889 µM; in experiment [2], 0.458 µM; in experiment [3] it was 2.01 µM; in [4] it was 0.499 µM; in [5], 0.748 µM; in experiment [6] it was 0.416 µM. Besides, the GI50 in [7] is 1.14 µM; in [8] it was 0.577 µM; in experiment [9] it was 0.305 µM; in [10] it was 0.38 µM. For the same compound, the TGI in experiment [1] is 3.26 µM; in experiment [2] it was 5.25 µM; in experiment [3], 4.59 µM; in experiment [4] it was 5.18 µM; in experiment [5], 12.3 µM; in experiment [6], 1.78 µM. For the same compound, the TGI in [7] amounted to 4.04 µM; in experiment [8], 2.32 µM; in [9], 1.03 µM; in [10], 1.59 µM.

On to `C[C@@H]1CN2[C@H]3[C@@H]1CC[C@]31CCC(=O)O[C@]1(C)[C@@H]1CC[C@H]3CCC=C3[C@@H]12`, for which the GI50 in [1] was above 70 µM; in experiment [2], above 70 µM; in experiment [3], above 70 µM; in experiment [4], above 70 µM; in experiment [5] it was 38.4 µM; in experiment [6], above 70 µM. For the same compound, the GI50 in [7], in [8], in experiment [9] and in experiment [10] was above 70 µM each time. In addition, the TGI in experiment [1], in experiment [2], in [3], in experiment [4], in [5] and in experiment [6] was above 70 µM throughout. The TGI in experiment [7], in experiment [8], in experiment [9] and in experiment [10] was above 70 µM throughout.

Take `CCN(CC)c1ccc2nc3c4ccccc4c(=NC(=O)c4ccccc4-c4c5ccc(N(CC)CC)cc5[o+]c5cc(N(CC)CC)ccc45)cc-3oc2c1`: the GI50 in experiment [1] was 2.41 µM; in experiment [2], 1.83 µM; in experiment [3], 14 µM; in experiment [4], 4.95 µM; in [5] it was 3.51 µM; in experiment [6] it was 1.69 µM. Moreover, the GI50 in [7] was 1.88 µM; in [8], 4.69 µM; in experiment [9], 2.74 µM; in [10], 2.33 µM. For the same compound, the TGI was 6.68 µM in experiment [1]; 5.08 µM in experiment [2]; 30.8 µM in experiment [3]; 18.9 µM in experiment [4]; 19.4 µM in experiment [5]; 4.49 µM in experiment [6]. Also, the TGI worked out at 6.13 µM in experiment [7], 19.4 µM in experiment [8], 20.5 µM in experiment [9] and 8.83 µM in [10].

These data come from PubChem BioAssay (NCI).
